Like-named read-outs stand apart in the source and are kept apart here.
Biological target: T1, mUSP18 (Mus musculus, UniProt Q9WTV6)
T1 construct: (46-368); His-tag (N); made in house
T1 sequence (Q9WTV6 46-368): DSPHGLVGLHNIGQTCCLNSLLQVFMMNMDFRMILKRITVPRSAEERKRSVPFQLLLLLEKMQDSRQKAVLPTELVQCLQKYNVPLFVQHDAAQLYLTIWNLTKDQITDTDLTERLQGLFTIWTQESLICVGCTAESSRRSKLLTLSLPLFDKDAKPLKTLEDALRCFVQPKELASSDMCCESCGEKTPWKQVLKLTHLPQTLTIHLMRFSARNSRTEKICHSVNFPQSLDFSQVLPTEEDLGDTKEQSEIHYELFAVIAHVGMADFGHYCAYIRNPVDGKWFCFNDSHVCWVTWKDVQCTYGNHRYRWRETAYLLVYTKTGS
Assay: High-throughput screening, ISG15ct-RhoMP, single dose 1.25 µM
Type: biochemical, murine
Settings: mUSP18 %inhibition

[1] = carboxylic acid (CA) building block alone, read-out: %inh CA only
[2] = carboxylic acid (CA) with coupling reagents DIC/HOBT, read-out: %inh CA + DIC/HOBT
[3] = carboxylic acid (CA) building block alone
[4] = carboxylic acid (CA) with coupling reagents DIC/HOBT

inhibition at 1.25 µM [1] [%]	inhibition at 1.25 µM [2] [%]	%inh CA only [3] [%]	%inh CA + DIC/HOBT [4] [%]	Compound
3.86	-3.06			O=C(O)c1sc(N2CCCC2)nc1Cl [CA311]
-6.73	-5.95			CC1CN(S(=O)(=O)c2ccc(C(=O)O)cc2)CC(C)O1 (stereo not drawn) [CA389]
8.2	-0.34			O=C(O)c1cccc(OCCOc2ccccc2Cl)n1 [CA309]
1.15	-3.85			O=C(O)c1ccc(-n2cccn2)cc1 [CA287]
-7.15	-4.5			O=C(O)c1cccnc1Oc1ccccc1Br [CA395]
-7.59	-4.7			Cc1ncsc1C(=O)N(C)c1ccccc1C(=O)O [CA390]
-3.88	-0.96			O=C(O)c1cc(-c2ccncc2)on1 [CA294]
2.74	-10.8			O=C(O)c1cnn(-c2ccccc2)n1 [CA377]
5.37	-5.91			O=C(O)c1ccc(Cn2ccccc2=O)o1 [CA448]
-1.04	2.17			O=C(O)C1CCN(S(=O)(=O)N2CCCCC2)CC1 [CA365]
-4.12	-12.2			O=C(O)C1CCCN1C(=O)C1CC1 (stereo not drawn) [CA404]
1	7			Cn1cc(-c2cc[nH]n2)c(C(=O)O)n1 [CA271]
-5.84	-2.29			O=C(O)C1CCCN(c2ncccc2C(F)(F)F)C1 (stereo not drawn) [CA440]
4.64	-1.59			O=C(O)c1ccc(-c2ccccn2)nc1 [CA357]
0.37	-9.76			O=C(O)C1CCN1C1CCCC1 (stereo not drawn) [CA402]
0.84	-7.57			O=C(O)Cc1csc(C2CC2)n1 [CA455]
-10.1	26.8			CC1=NN(c2cccc(Br)c2)C(=O)C1CC(=O)O (stereo not drawn) [CA446]
-1.56	-6.2			O=C(O)c1ccc(=O)n(C2CC2)c1 [CA451]
-2.51	-6.89			O=C(O)c1ccccc1Cn1cncn1 [CA384]
-2.91	-4.58			CNS(=O)(=O)c1ccc(-c2ccc(Cl)c(Cl)c2)c(C(=O)O)c1 [CA387]
1.25	15			CC(C)c1nc(Cn2cc(C(=O)O)ccc2=O)cs1 [CA233]
10.4	2.36			O=C(O)C(=O)N1CCN(c2ccccc2)CC1 [CA261]
-1.56	-1.99			O=C(O)c1coc(C#Cc2ccccc2)c1 [CA393]

inhibition at 1.25 µM [1] [%]	inhibition at 1.25 µM [2] [%]	%inh CA only [3] [%]	%inh CA + DIC/HOBT [4] [%]	Compound
0.85	3.29			CC1(C(=O)O)CCCCN1C(=O)OCc1ccccc1 (stereo not drawn) [CA366]
-4.36	-9.17			Cn1nccc1[1C@@H]1C[1C@H]1C(=O)O [CA410]
-10.4	-3.35			O=C(O)Cc1csc(N2CCCC2=O)n1 [CA388]
-5.56	33.9			O=C(O)c1ccccc1OCc1cccs1 [CA407]
5.13	1.85			CN(CC(=O)N1CCCC(C(=O)O)C1)c1ccc(Cl)cn1 (stereo not drawn) [CA241]
10.4	-1.35			Cc1noc(C)c1S(=O)(=O)N1CCC(C(=O)O)CC1 [CA282]
-10.9	-0.86			O=C(O)c1cccc(S(=O)(=O)N2CCOCC2)c1 [CA422]
1.57	-1.23			O=C(O)c1ccc(S(=O)(=O)Nc2cccc(Cl)c2F)o1 [CA289]
-4.1	13.3			CC1CN(c2ccc(C(=O)O)cn2)CC(C)O1 (stereo not drawn) [CA352]
-3.64	0.63			O=C(O)Cc1cnn(-c2ccccc2)n1 [CA301]
2.43	2.72			Cc1cccc(COc2cccc(C(=O)O)c2)c1 [CA465]
5.65	-4.55			O=C(O)C1CC2C=CC1O2 (stereo not drawn) [CA358]
6.76	33.1			Cc1cc(C(=O)O)c(C)n1-c1ccon1 [CA214]
8.23	4.28			O=C(O)c1ccnc(N2CCOCC2)n1 [CA264]
-4.32	40.8			O=C(O)c1ccc(N2CCCC2)c(F)c1 [CA295]
12.1	1.48			Cc1onc(-c2ccccn2)c1C(=O)O [CA260]
3.97	-4.92			O=C(O)C1CC2CCC1O2 (stereo not drawn) [CA356]
9.22	-1.04			CN1CCN(C(=O)c2ccccc2C(=O)O)CC1 [CA213]
8.86	4.12			CCn1cc([1C@@H]2OCCC[1C@H]2C(=O)O)cn1 [CA400]
3.86	-1.32			O=C(O)CC1(Cn2cnnn2)CCCCC1 [CA317]
19.5	0.71			CCS(=O)(=O)N1CCC(C(=O)O)(c2ccccc2)CC1 [CA234]
-0.76	4.42			O=C(O)C1CCN(C(=O)c2ccc(Cl)s2)CC1 [CA350]
-0.89	-4.65			O=C(O)CC1CCN(c2ccc(Cl)nn2)CC1 [CA453]

The next lines start with the compound.

Compound	inhibition at 1.25 µM [1] [%]	inhibition at 1.25 µM [2] [%]	%inh CA only [3] [%]	%inh CA + DIC/HOBT [4] [%]
O=C(O)c1snnc1-c1ccc(Br)cc1 [CA126]	9.01	10.8		
O=C(O)c1cc([N+](=O)[O-])ccc1Br [CA054]	-7.96	-15.9		
CC(=O)CCCC(=O)O [CA044]	-3.03	-7.52		
CSCCC(NC(C)=O)C(=O)O (stereo not drawn) [CA001]	4.64	-9.16		
O=C(O)c1ccc(=O)n(Cc2ccccc2)n1 [CA211]	14.5	0.49		
CC(=O)NCC(=O)O [CA002]	0.89	-10.9		
CN1CCN(c2ccccc2C(=O)O)CC1 [CA101]	13.5	12.2		
O=C(O)c1ncoc1-c1ccco1 [CA146]	8.58	6.8		
O=C(O)c1cnc(-c2ccco2)s1 [CA188]	10.2	-0.34		
O=C(O)c1csc(-c2ccccn2)n1 [CA190]	9.48	6.54		
O=C(O)c1ccc(S(=O)(=O)N2CCOCC2)cc1 [CA182]	2.85	2.77		
Cc1nc(-c2cccnc2)sc1C(=O)O [CA212]	10.5	0.87		
Cn1cc(S(=O)(=O)N2CCCC(C(=O)O)C2)cn1 (stereo not drawn) [CA198]	0.78	2.3		
O=C(O)Cc1csc(COc2ccc(Cl)cc2)n1 [CA097]	15.8	12.5		
O=C(O)Cc1ccc(S(=O)(=O)N2CCOCC2)s1 [CA149]	9.87	8.05		
O=C(O)C1CC(=O)N(c2cnccn2)C1 (stereo not drawn) [CA108]	13.8	11.5		
COc1ccc(OCc2cc(C)on2)c(C(=O)O)c1 [CA200]	0.4	3.72		
O=Cc1ccc(C(=O)O)cc1 [CA037]	9.56	-5.24		

Compound	inhibition at 1.25 µM [1] [%]	inhibition at 1.25 µM [2] [%]	%inh CA only [3] [%]	%inh CA + DIC/HOBT [4] [%]
CC(C)(C)OC(=O)N[C@@H](Cc1cn(-c2ccc([N+](=O)[O-])cc2[N+](=O)[O-])cn1)C(=O)O [CA022]	-4.55	-8.26		
O=C1CC(C(=O)O)NC(=O)N1 (stereo not drawn) [CA075]	-4.58	-15.1		
O=C(O)c1cnccn1 [CA081]			-6.50	-13.28
O=C(O)c1cnccn1 [CA015]			-1.35	-15.60
O=C(O)c1cc(-c2ccc(Cl)cc2)oc1C(F)(F)F [CA133]	11	11.8		
CC(C)(C)OC(=O)NC1(C(=O)O)CC1 [CA060]	-6.62	-13.2		
Cn1cc(-c2ocnc2C(=O)O)cn1 [CA102]	12.6	14.3		
Cc1onc(-c2ccncc2)c1C(=O)O [CA308]	7.23	-3.66		
Cc1oc(Cn2cc(Br)cn2)cc1C(=O)O [CA156]	8.69	12.3		
CN1CCN(C(=O)C2CC=CCC2C(=O)O)CC1 (stereo not drawn) [CA181]	2.59	16.4		
Cc1ccc(NS(=O)(=O)c2cccc(C(=O)O)c2)cc1 [CA115]	21.2	6.11		
O=C(O)Cc1cccc(OCc2ccccn2)c1 [CA158]	1.44	6.76		
O=C(O)c1ccc(-n2ccnc2)nn1 [CA176]	15.3	5.42		
O=C(O)c1sccc1Br [CA034]	-2.15	-14		
CN(C(=O)c1cccs1)c1ccccc1C(=O)O [CA100]	16.4	10.5		
CN1C(=O)C[C@@H](C(=O)O)[C@@H]1c1cccnc1 [CA042]			0.50	-12.12
O=C(O)Cc1csc(-n2cccc2)n1 [CA183]	4.52	3.13		
